From the supplement of paper PMC10307832

Legend:
Assay in all cases: relative viability (nuclei count vs DMSO), 5 days (fraction); higher = more cells survive
[1] = compound: NC(=O)[C@@H](CCC(F)(F)F)N(Cc1ccc(-c2ncon2)cc1F)S(=O)(=O)c1ccc(Cl)cc1 [Avagacestat] + Nc1ncn([C@H]2C[C@H](O)[C@@H](CO)O2)c(=O)n1 [Decitabine] (partner 2 µM)
Procedure, shortened: (§1)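 The day after seeding in 1536-well plates, lung cancer cell lines were treated by pin tool with a single drug, or with a fixed anchor-drug dose together with five library-drug doses (not always all listed) in √10 steps. After 5 days, a combined fix-and-stain solution (final 0.05% Triton X-100, 1% formaldehyde, 1 ug/ml Hoechst) was added. Nuclei counted on 4× images gave relative viability as treated counts over vehicle counts, reported as the median of duplicate plates.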

[2] = compound: NC(=O)[C@@H](CCC(F)(F)F)N(Cc1ccc(-c2ncon2)cc1F)S(=O)(=O)c1ccc(Cl)cc1 [Avagacestat] + NC(=O)Nc1cc(-c2cccc(F)c2)sc1C(=O)N[C@H]1CCCNC1 [AZD7762] (partner 0.2 µM)
Procedure, shortened: as §1

[3] = compound: NC(=O)[C@@H](CCC(F)(F)F)N(Cc1ccc(-c2ncon2)cc1F)S(=O)(=O)c1ccc(Cl)cc1 [Avagacestat] + Cc1cc(Nc2cc(N3CCN(C)CC3)nc(Sc3ccc(NC(=O)C4CC4)cc3)n2)n[nH]1 [Tozasertib] (partner 0.1 µM)
Procedure, shortened: as §1

[4] = compound: NC(=O)[C@@H](CCC(F)(F)F)N(Cc1ccc(-c2ncon2)cc1F)S(=O)(=O)c1ccc(Cl)cc1 [Avagacestat] + CC(C)C[C@H](NC(=O)[C@H](Cc1ccccc1)NC(=O)c1cnccn1)B(O)O [Bortezomib] (partner 0.002 µM)
Procedure, shortened: as §1

Row | Cell Line | relative viability ([1]; first compound 0.08 µM) | relative viability ([1]; first compound 0.253 µM) | relative viability ([1]; first compound 0.8 µM) | relative viability ([1]; first compound 2.53 µM) | relative viability ([1]; first compound 8 µM) | relative viability ([2]; first compound 0.08 µM) | relative viability ([2]; first compound 0.253 µM) | relative viability ([2]; first compound 0.8 µM) | relative viability ([2]; first compound 2.53 µM) | relative viability ([2]; first compound 8 µM) | relative viability ([3]; first compound 0.08 µM) | relative viability ([3]; first compound 0.253 µM) | relative viability ([3]; first compound 0.8 µM) | relative viability ([3]; first compound 2.53 µM) | relative viability ([3]; first compound 8 µM) | relative viability ([4]; first compound 0.08 µM) | relative viability ([4]; first compound 0.253 µM) | relative viability ([4]; first compound 0.8 µM) | relative viability ([4]; first compound 8 µM) | relative viability ([4]; first compound 2.53 µM)
1 | NCI-H1944 | 0.452 | 0.475 | 0.402 | 0.406 | 0.428 | 0.455 | 0.603 | 0.571 | 0.454 | 0.719 | 0.256 | 0.314 | 0.232 | 0.222 | 0.257 | – | – | – | – | –
2 | NCI-H661 | 0.585 | 0.568 | 0.608 | 0.56 | 0.558 | – | – | – | – | – | 0.356 | 0.381 | 0.361 | 0.363 | 0.37 | 0.919 | 1.06 | 0.774 | 0.693 | –
3 | COR-L 105 | 0.665 | 0.734 | 0.642 | 0.595 | 0.558 | – | – | – | – | – | 0.379 | 0.458 | 0.41 | 0.334 | 0.359 | 0.894 | 0.681 | 0.689 | 0.687 | 0.697
4 | NCI-H520 | 0.606 | 0.501 | 0.467 | 0.453 | 0.475 | – | – | – | – | – | 0.417 | 0.48 | 0.42 | 0.3 | 0.36 | 0.728 | 0.555 | 0.679 | 0.334 | 0.48
5 | NCI-H2228 | – | – | – | – | – | – | – | – | – | – | 0.206 | 0.255 | 0.206 | 0.224 | 0.242 | 1.12 | 0.952 | 1.05 | 0.734 | 0.886
6 | EBC-1 | – | – | – | – | – | – | – | – | – | – | – | – | – | – | – | 0.496 | 0.521 | 0.524 | 0.381 | 0.449
7 | UMC-11 | 0.657 | 0.57 | 0.585 | 0.602 | 0.597 | – | – | – | – | – | 0.206 | 0.225 | 0.201 | 0.195 | 0.202 | 0.915 | 0.563 | 0.722 | 0.414 | 0.749
8 | NCI-H1648 | 0.469 | 0.392 | 0.265 | 0.363 | 0.37 | 0.603 | 0.564 | 0.548 | 0.46 | 0.48 | 0.374 | 0.464 | 0.371 | 0.296 | 0.298 | – | – | – | – | –
9 | SW 900 | 0.376 | 0.401 | 0.422 | 0.464 | 0.41 | 0.847 | 0.807 | 0.606 | 0.571 | 0.466 | 0.726 | 0.637 | 0.578 | 0.487 | 0.353 | – | – | – | – | –
10 | NCI-H2009 | 0.412 | 0.384 | 0.386 | 0.332 | 0.395 | – | – | – | – | – | 0.879 | 0.836 | 0.812 | 0.61 | 0.532 | 1.04 | 1.03 | 1.07 | 0.828 | 1.02
11 | NCI-H1793 | 0.504 | 0.532 | 0.508 | 0.472 | 0.496 | 0.619 | 0.474 | 0.373 | 0.346 | 0.228 | 0.307 | 0.329 | 0.655 | 0.239 | 0.3 | – | – | – | – | –
12 | NCI-H1650 | 0.432 | 0.558 | 0.457 | 0.432 | 0.416 | – | – | – | – | – | 0.47 | 0.378 | 0.468 | 0.393 | 0.333 | 0.212 | 0.232 | 0.196 | 0.21 | 0.211
13 | NCI-H1395 | 0.719 | 0.717 | 0.67 | 0.692 | 0.681 | 0.407 | 0.365 | 0.369 | 0.412 | 0.333 | 0.826 | 0.758 | 0.752 | 0.64 | 0.715 | – | – | – | – | –
14 | NCI-H2170 | 0.462 | 0.437 | 0.481 | 0.495 | 0.501 | 0.968 | 1.14 | 0.928 | 0.793 | 0.877 | 0.807 | 0.782 | 0.812 | 0.72 | 0.646 | – | – | – | – | –
15 | NCI-H522 | 0.782 | 0.674 | 0.681 | 0.606 | 0.614 | 0.768 | 0.82 | 0.807 | 0.843 | 0.985 | 0.559 | 0.593 | 0.579 | 0.517 | 0.479 | – | – | – | – | –
16 | A549 | 0.331 | 0.254 | 0.296 | 0.31 | 0.259 | – | – | – | – | – | – | – | – | – | – | – | – | – | – | –
17 | SW 1573 | 0.539 | 0.582 | 0.664 | 0.446 | 0.59 | – | – | – | – | – | 0.169 | 0.195 | 0.173 | 0.217 | 0.176 | 1.26 | 1.03 | 1.19 | 0.922 | 0.967
18 | NCI-H358 | 0.251 | 0.264 | 0.19 | 0.212 | 0.219 | 0.516 | 0.595 | 0.57 | 0.481 | 0.461 | 0.106 | 0.0996 | 0.102 | 0.101 | 0.107 | – | – | – | – | –
19 | NCI-H1299 | – | – | – | – | – | – | – | – | – | – | – | – | – | – | – | 1.03 | 1.01 | 1 | 0.991 | 1.01
20 | CAL-12T | – | – | – | – | – | 0.703 | 0.703 | 0.782 | 0.61 | 0.569 | 0.368 | 0.358 | 0.385 | 0.24 | 0.278 | 1.13 | 0.982 | 1.42 | 1.14 | 1.09
21 | COR-L23 | 0.519 | 0.406 | 0.434 | 0.399 | 0.39 | – | – | – | – | – | 0.363 | 0.152 | 0.171 | 0.173 | 0.149 | 1.58 | 1.3 | 1.14 | 0.528 | 1.03
22 | NCI-H1792 | 0.722 | 0.561 | 0.618 | 0.487 | 0.426 | 0.726 | 0.942 | 0.706 | 0.65 | 0.345 | – | – | – | – | – | 1.6 | 1.06 | 1.37 | 0.766 | 0.832
23 | NCI-H1563 | – | – | – | – | – | – | – | – | – | – | – | – | – | – | – | 0.917 | 0.821 | 0.898 | 0.835 | 0.792
24 | SK-LU-1 | 0.66 | 0.638 | 0.699 | 0.53 | 0.552 | – | – | – | – | – | 0.317 | 0.318 | 0.329 | 0.269 | 0.31 | 1.46 | 1.21 | 1.32 | 0.737 | 1.13
25 | Calu-6 | – | – | – | – | – | – | – | – | – | – | – | – | – | – | – | 1.27 | 1.09 | 1.08 | 0.975 | 1.17
